Test results: patent publication US10017524B2, “Compound and pharmaceutical composition for neuropsychological disorder or malignant tumor” (KYOTO UNIVERSITY, priority 2012, dated 2018)

Assays:
[1] = system: phosphorylation of a threonine residue at position 212 of tau protein by DYRK1A protein; assay: Inhibitory activity on phosphorylation of tau protein in cultured cells expressing tau and DYRK1A (western blot, Thr212); assay type: cell-based; conditions: compounds of 10 μM, phospho-Thr212 tau, cells expressing tau and DYRK1A
Experimental: The inhibitory activity of the compounds synthesized in the production examples on the phosphorylation of tau protein was evaluated by an evaluation system using the following cultured cells.
The cultured cells that can induce the expressions of tau protein and DYRK1A protein individually and that allow the phosphorylation of the tau protein to be evaluated depending on the activity of the DYRK1A protein were used in the evaluation system. […] Therefore, the inhibitory activity on the phosphorylation of the tau protein can be evaluated by inducing the expressions of both the tau protein and the DYRK1A protein, and evaluating the degree of phosphorylation of a threonine residue at position 212 of the tau protein.
The compounds 1, 4, and 6 to 9 (10 μM) were added to the evaluation system, and the phosphorylation of the tau protein was detected with the antibody that specifically recognizes the phosphorylation of a threonine residue at position 212 of the tau protein. […] The “control” represents the result of adding no compound.
The inhibitory activity of the compounds 1 and 2 on the phosphorylation of tau protein was evaluated in the same manner as the Experimental example 1.
The “control” represents the result of adding no compound.
The inhibitory activity of the compounds 3, 6, and 9 to 15 on the phosphorylation of tau protein was evaluated in the same manner as the experimental example 1. FIGS. 7 to 9 show an example of the results.

[2] = system: Down's syndrome-derived acute megakaryoblastic leukemia (AMKL) cells KPAM1; assay: Inhibition of growth of cancer cells (Alamar Blue); assay type: cell-based; conditions: KPAM1, cultivation for 5 days
Experimental: (§1) Specifically, the cells were seeded on a 24 Well plate, and the compounds at a predetermined concentration were added. After cultivation for 5 days, the number of cells was calculated by detecting the fluorescence intensity with Alamar Blue. The culture medium containing the compounds was replaced every day. FIGS. 10 to 12 show an example of the results.

[3] = system: retinoblastoma cell lines WERI; assay: Inhibition of growth of cancer cells (Alamar Blue); assay type: cell-based
Experimental: as §1

[4] = system: human lung adenocarcinoma-derived cell lines (PC-9); assay: Growth inhibition, microscopic observation; assay type: cell-based; conditions: PC-9 lines, microscope
[5] = system: PC-9-GR-step lines (gefitinib-resistant sub-lines of PC-9); assay: Growth inhibition, microscopic observation; assay type: cell-based, human; conditions: microscope
PC-9-GR-high lines = assay: Growth inhibition, microscopic observation; assay type: cell-based, human; conditions: microscope
[6] = system: MDA-MB-453 human breast cancer cells (triple-negative); assay: Growth inhibition, adherent and non-adherent culture (Alamar Blue); assay type: cell-based; conditions: MDA-MB-453, cells cultured to prevent adhering
Experimental: as §1
(§2) In addition, the effect was also confirmed when the target cells were cultured to prevent them from adhering to each other.

[7] = system: MDA-MB-468 human breast cancer cells (triple-negative); assay: as above; assay type: cell-based; conditions: MDA-MB-468, cells cultured to prevent adhering
Experimental: as §1, §2

CCN1/C(=C/C(C)=O)Sc2ccc3oc4ccccc4c3c21 [Compound 3, (Z)-1-[1-ethylbenzo[2,3]benzofuro[4,5-d]thiazol-2(1H)-ylidene]propan-2-one]
inhibitory effect on the phosphorylation of the tau protein [1]: inhibitory effect
inhibitory effect on the growth of the cancer cells [2]: excellent inhibitory effect
inhibitory effect on the growth of the cancer cells [3]: inhibitory effect
apoptosis-inducing activity on the cancer cells [4]: excellent apoptosis-inducing activity
apoptosis-inducing activity on the cancer cells [5]: excellent apoptosis-inducing activity
apoptosis-inducing activity on the cancer cells (PC-9-GR-high lines): excellent apoptosis-inducing activity
inhibitory effect on the anchorage-independent growth [6]: inhibitory effect
inhibitory effect on the anchorage-independent growth [7]: inhibitory effect
